Reference: ChEMBL document CHEMBL3885881, “DrugMatrix”

Species: Rattus norvegicus
Test: DrugMatrix - Regimen: Daily Repeat
Type: toxicity, organism-based, Sprague-Dawley
Parameters: regimen Daily Repeat, gender Male, age 6-8 weeks
Details: in vivo, po, route oral GAVAGE, vehicle .5 % CMC; for ABSOLUTE BASOPHIL / ABSOLUTE EOSINOPHIL / ABSOLUTE LYMPHOCYTE / ABSOLUTE MONOCYTE / ABSOLUTE SEGMENTED NEUTROPHIL / BASOPHIL / EOSINOPHIL / ERYTHROCYTE COUNT / HEMATOCRIT / HEMOGLOBIN / LEUKOCYTE COUNT / LYMPHOCYTE / MEAN CORPUSCULAR HEMOGLOBIN / MEAN CORPUSCULAR HEMOGLOBIN CONCENTRATION / MEAN CORPUSCULAR VOLUME / MONOCYTE / NEUTROPHIL / NUCLEATED RED BLOOD CELLS / PLATELET COUNT: tissue Blood; for ALANINE AMINOTRANSFERASE / ALBUMIN / ALKALINE PHOSPHATASE / ASPARTATE AMINOTRANSFERASE / BLOOD UREA NITROGEN / CARBON DIOXIDE / CHLORIDE / CHOLESTEROL / CREATINE PHOSPHOKINASE / CREATININE / GLUCOSE / LACTATE DEHYDROGENASE / LIPASE / PHOSPHORUS / POTASSIUM / SODIUM / TOTAL BILIRUBIN / TOTAL PROTEIN / URIC ACID: tissue Plasma
[1] = 0 mg/kg, 72 h, dose level Control, time 3 day
[2] = 0 mg/kg, 120 h, dose level Control, time 5 day
[3] = 59 mg/kg, 72 h, dose level Low, time 3 day
[4] = 59 mg/kg, 120 h, dose level Low, time 5 day

For `Cc1c(-c2ccccc2)oc2c(C(=O)OCCN3CCCCC3)cccc2c1=O` [FLAVOXATE], the “ABSOLUTE BASOPHIL” value [1] was 0 CELLS/uL, the “ABSOLUTE EOSINOPHIL” value [1] was 32.5 CELLS/uL and the “ABSOLUTE LYMPHOCYTE” value [1] was 13494.17 CELLS/uL. The “ABSOLUTE MONOCYTE” value [1] was 474 CELLS/uL, the “ABSOLUTE SEGMENTED NEUTROPHIL” value [1] was 1932.67 CELLS/uL and the BASOPHIL [1] was 0%. The EOSINOPHIL [1] was 0.17%, the “ERYTHROCYTE COUNT” value [1] was 5.45 x10E6/uL and the HEMATOCRIT [1] was 34.32%. For the same compound, the HEMOGLOBIN [1] was 13.82 G/DL, the “LEUKOCYTE COUNT” value [1] was 15.93 x10E3/uL and the LYMPHOCYTE [1] was 84.83%. For the same compound, the “MEAN CORPUSCULAR HEMOGLOBIN” value [1] was 25.38 pg, the “MEAN CORPUSCULAR HEMOGLOBIN CONCENTRATION” value [1] was 40.27 G/DL and the “MEAN CORPUSCULAR VOLUME” value [1] was 63.05 fL. For the same compound, the MONOCYTE [1] was 3%, the NEUTROPHIL [1] was 12% and the “NUCLEATED RED BLOOD CELLS” value [1] was 0.67 /100WBC. For the same compound, the “PLATELET COUNT” value [1] was 1188.5 x10E3/uL, the “ALANINE AMINOTRANSFERASE” value [1] was 54.83 u/L and the ALBUMIN [1] was 4.22 G/DL. For the same compound, the “ALKALINE PHOSPHATASE” value [1] was 427.67 u/L, the “ASPARTATE AMINOTRANSFERASE” value [1] was 86.5 u/L and the “BLOOD UREA NITROGEN” value [1] was 15.33 mg/dL. For the same compound, the “CARBON DIOXIDE” value [1] was 24.83 mmol/L, the CHLORIDE [1] was 102.33 MEQ/L and the CHOLESTEROL [1] was 71.67 mg/dL. The “CREATINE PHOSPHOKINASE” value [1] was 442.5 u/L, the CREATININE [1] was 0.19 mg/dL and the GLUCOSE [1] was 160.67 mg/dL. For the same compound, the “LACTATE DEHYDROGENASE” value [1] was 236.5 u/L, the LIPASE [1] was 9 u/L and the PHOSPHORUS [1] was 11.97 mg/dL. The POTASSIUM [1] was 6.2 MEQ/L, the SODIUM [1] was 142.85 MEQ/L and the “TOTAL BILIRUBIN” value [1] was 0.2 mg/dL. The “TOTAL PROTEIN” value [1] was 5.8 G/DL, the “URIC ACID” value [1] was 1.3 mg/dL and the “ABSOLUTE BASOPHIL” value [2] was 0 CELLS/uL. The “ABSOLUTE EOSINOPHIL” value [2] was 114.5 CELLS/uL, the “ABSOLUTE LYMPHOCYTE” value [2] was 14614 CELLS/uL and the “ABSOLUTE MONOCYTE” value [2] was 173 CELLS/uL. For the same compound, the “ABSOLUTE SEGMENTED NEUTROPHIL” value [2] was 1048.5 CELLS/uL, the BASOPHIL [2] was 0% and the EOSINOPHIL [2] was 0.67%. For the same compound, the “ERYTHROCYTE COUNT” value [2] was 5.66 x10E6/uL, the HEMATOCRIT [2] was 35.52% and the HEMOGLOBIN [2] was 14.27 G/DL. The “LEUKOCYTE COUNT” value [2] was 15.95 x10E3/uL, the LYMPHOCYTE [2] was 91.33% and the “MEAN CORPUSCULAR HEMOGLOBIN” value [2] was 25.23 pg. For the same compound, the “MEAN CORPUSCULAR HEMOGLOBIN CONCENTRATION” value [2] was 40.2 G/DL, the “MEAN CORPUSCULAR VOLUME” value [2] was 62.7 fL and the MONOCYTE [2] was 1.17%. The NEUTROPHIL [2] was 6.83%, the “NUCLEATED RED BLOOD CELLS” value [2] was 0.33 /100WBC and the “PLATELET COUNT” value [2] was 1229 x10E3/uL. For the same compound, the “ALANINE AMINOTRANSFERASE” value [2] was 58.67 u/L, the ALBUMIN [2] was 4.32 G/DL and the “ALKALINE PHOSPHATASE” value [2] was 382.5 u/L. For the same compound, the “ASPARTATE AMINOTRANSFERASE” value [2] was 81.67 u/L, the “BLOOD UREA NITROGEN” value [2] was 17.67 mg/dL and the “CARBON DIOXIDE” value [2] was 27.17 mmol/L. The CHLORIDE [2] was 102.33 MEQ/L, the CHOLESTEROL [2] was 63.67 mg/dL and the “CREATINE PHOSPHOKINASE” value [2] was 227.67 u/L. The CREATININE [2] was 0.23 mg/dL, the GLUCOSE [2] was 155.33 mg/dL and the “LACTATE DEHYDROGENASE” value [2] was 146.5 u/L. The LIPASE [2] was 10.67 u/L, the PHOSPHORUS [2] was 11.93 mg/dL and the POTASSIUM [2] was 6.85 MEQ/L. For the same compound, the SODIUM [2] was 143.95 MEQ/L, the “TOTAL BILIRUBIN” value [2] was 0.18 mg/dL and the “TOTAL PROTEIN” value [2] was 6.02 G/DL. For the same compound, the “URIC ACID” value [2] was 1.63 mg/dL, the “ABSOLUTE BASOPHIL” value [3] was 0 CELLS/uL and the “ABSOLUTE EOSINOPHIL” value [3] was 0 CELLS/uL. For the same compound, the “ABSOLUTE LYMPHOCYTE” value [3] was 10292.33 CELLS/uL, the “ABSOLUTE MONOCYTE” value [3] was 303.67 CELLS/uL and the “ABSOLUTE SEGMENTED NEUTROPHIL” value [3] was 1637.33 CELLS/uL. For the same compound, the BASOPHIL [3] was 0%, the EOSINOPHIL [3] was 0% and the “ERYTHROCYTE COUNT” value [3] was 5.31 x10E6/uL. The HEMATOCRIT [3] was 32.77%, the HEMOGLOBIN [3] was 12.9 G/DL and the “LEUKOCYTE COUNT” value [3] was 12.23 x10E3/uL. The LYMPHOCYTE [3] was 84%, the “MEAN CORPUSCULAR HEMOGLOBIN” value [3] was 24.3 pg and the “MEAN CORPUSCULAR HEMOGLOBIN CONCENTRATION” value [3] was 39.4 G/DL. The “MEAN CORPUSCULAR VOLUME” value [3] was 61.7 fL, the MONOCYTE [3] was 2.67% and the NEUTROPHIL [3] was 13.33%. The “NUCLEATED RED BLOOD CELLS” value [3] was 0.33 /100WBC, the “PLATELET COUNT” value [3] was 1448 x10E3/uL and the “ALANINE AMINOTRANSFERASE” value [3] was 51.33 u/L. The ALBUMIN [3] was 4.17 G/DL, the “ALKALINE PHOSPHATASE” value [3] was 336.67 u/L and the “ASPARTATE AMINOTRANSFERASE” value [3] was 71.67 u/L. For the same compound, the “BLOOD UREA NITROGEN” value [3] was 15 mg/dL, the “CARBON DIOXIDE” value [3] was 24.33 mmol/L and the CHLORIDE [3] was 101.67 MEQ/L. The CHOLESTEROL [3] was 85.67 mg/dL, the “CREATINE PHOSPHOKINASE” value [3] was 168.33 u/L and the CREATININE [3] was 0.14 mg/dL. The GLUCOSE [3] was 167.33 mg/dL, the “LACTATE DEHYDROGENASE” value [3] was 73.67 u/L and the LIPASE [3] was 9.67 u/L. The PHOSPHORUS [3] was 13.13 mg/dL, the POTASSIUM [3] was 6.68 MEQ/L and the SODIUM [3] was 144.33 MEQ/L. For the same compound, the “TOTAL BILIRUBIN” value [3] was 0.2 mg/dL, the “TOTAL PROTEIN” value [3] was 5.6 G/DL and the “URIC ACID” value [3] was 1.77 mg/dL. For the same compound, the “ABSOLUTE BASOPHIL” value [4] was 0 CELLS/uL, the “ABSOLUTE EOSINOPHIL” value [4] was 0 CELLS/uL and the “ABSOLUTE LYMPHOCYTE” value [4] was 14413.67 CELLS/uL. For the same compound, the “ABSOLUTE MONOCYTE” value [4] was 41.67 CELLS/uL, the “ABSOLUTE SEGMENTED NEUTROPHIL” value [4] was 1278 CELLS/uL and the BASOPHIL [4] was 0%. The EOSINOPHIL [4] was 0%, the “ERYTHROCYTE COUNT” value [4] was 5.45 x10E6/uL and the HEMATOCRIT [4] was 34.03%. The HEMOGLOBIN [4] was 13.93 G/DL, the “LEUKOCYTE COUNT” value [4] was 15.73 x10E3/uL and the LYMPHOCYTE [4] was 92%. For the same compound, the “MEAN CORPUSCULAR HEMOGLOBIN” value [4] was 25.57 pg, the “MEAN CORPUSCULAR HEMOGLOBIN CONCENTRATION” value [4] was 40.93 G/DL and the “MEAN CORPUSCULAR VOLUME” value [4] was 62.5 fL. The MONOCYTE [4] was 0.33%, the NEUTROPHIL [4] was 7.67% and the “NUCLEATED RED BLOOD CELLS” value [4] was 0 /100WBC. The “PLATELET COUNT” value [4] was 1355 x10E3/uL, the “ALANINE AMINOTRANSFERASE” value [4] was 45.67 u/L and the ALBUMIN [4] was 4.07 G/DL. For the same compound, the “ALKALINE PHOSPHATASE” value [4] was 365.33 u/L, the “ASPARTATE AMINOTRANSFERASE” value [4] was 71.33 u/L and the “BLOOD UREA NITROGEN” value [4] was 16 mg/dL. The “CARBON DIOXIDE” value [4] was 25 mmol/L, the CHLORIDE [4] was 103.33 MEQ/L and the CHOLESTEROL [4] was 77 mg/dL. The “CREATINE PHOSPHOKINASE” value [4] was 183.67 u/L, the CREATININE [4] was 0.19 mg/dL and the GLUCOSE [4] was 155.67 mg/dL. For the same compound, the “LACTATE DEHYDROGENASE” value [4] was 161.33 u/L, the LIPASE [4] was 9.67 u/L and the PHOSPHORUS [4] was 12.93 mg/dL. For the same compound, the POTASSIUM [4] was 6.66 MEQ/L, the SODIUM [4] was 145.6 MEQ/L and the “TOTAL BILIRUBIN” value [4] was 0.17 mg/dL. For the same compound, the “TOTAL PROTEIN” value [4] was 5.8 G/DL and the “URIC ACID” value [4] was 1.4 mg/dL.
